Results reported in patent publication US7744867B2, “PTPase inhibitors and method of using same” (The Cleveland Clinic Foundation, priority 2001, dated 2010).

Key:
[1] = test system: Jak2 and Stat5 tyrosine phosphorylation; experiment: IL-3-induced Jak2/Stat5 tyrosine phosphorylation in Baf3 cells; type: cell-based, murine
Description: For induction of cellular protein phosphorylation by sodium stibogluconate or pervanadate, Baf3 cells were incubated in 0.1% FCS RPMI 1640 medium at 37° C. for 16 hours. The cells were then washed twice in RPMI 1640 medium and incubated with sodium stibogluconate or pervanandate (0.1 mM) for various times prior to termination by lysing cells in cold lysis buffer (50 mM Tris, pH 7.4; 150 mM NaCl; 0.2 mM Na3VO4; 20 mm NaF; 1% NP40; 2 mM PMSF; 20 μg/ml of aprotinin and 1 mM of sodium molybdic acid). To determine the effect of sodium stibogluconate or potassium antimonyl tartrate on IL-3-induced Jak/Stat phosphorylation, Baf3 cells were deprived of the growth factor for 16 hours in 0.1% FCS RPMI 1640 medium and then incubated with or without sodium stibogluconate or potassium antimonyl tartrate for 10 minutes. IL-3 was next added to the cell suspension and incubated for various times. The cells were then harvested and lysed in cold lysis buffer at 4° C. for 45 minutes. Total cell lysates (TCL) were separated in SDS-PAGE gels, blotted onto nitrocellulose membrane (Schleicher & Schuell), probed with specific antibodies and detected using an enhanced chemiluminescence kit (ECL, Amersham).
A functional role of SHP-1 in dephosphorylating the Jak family kinases during cytokine signaling has been documented. To determine whether sodium stibogluconate inhibits SHP-1 in vivo, the effect of the drug on IL-3-induced Jak2 tyrosine phosphorylation in Baf3 cells was examined. Baf3 cells deprived of IL-3 were incubated with or without the drug for 10 minutes and then stimulated with IL-3 for various times. IL-3 induced tyrosine phosphorylation of Jak2 and Stat5 in Baf3 cells in the presence or absence of the drug. However, the phosphotyrosine levels of Jak2 and Stat5 in the presence of the drug were about twice of those in cells without drug treatment as determined by densitometry analysis.

[2] = molecular target: T1, recombinant PRL-3 (Homo sapiens, UniProt O75365); experiment: In vitro PTPase assay with recombinant PRL (peptide or DiFMUP substrate); type: biochemical
T1 construct: made in house; host or cells: E. coli DH5α
Description: In vitro PTPase activities were measured using the commercial protein tyrosine phosphatase assay kit (UBI) following established procedure. […] 100 μl of Malachite Green solution was added and incubated for 5 minutes, and the absorbance at 660 nm was measured after 5 minutes.
Recombinant GST fusion proteins of human PRL-1, 2 and 3 phosphatases were purified with glutathione beads from DH5α bacteria transformed by pGEX vectors containing cDNA fragments encoding the human PRLs which were generated by RT-PCR from H9 cells and confirmed by sequence analysis. Activities of the purified recombinant PRL proteins in dephosphorylating DiFMUP in the absence or presence of various inhibitors were measured following established procedure.
To assess whether sodium stibogluconate is an inhibitor of oncogenic PRL phosphatases, its effects on the PTPase activity of recombinant PRLs were evaluated by in vitro PTPase assays.

[3] = test system: WM9 human melanoma xenografts; experiment: Xenografts of human melanoma in nude mice, tumor volume; type: in vivo; conditions: day 25, IFNα 500,000 U s.c. daily, sodium stibogluconate 12 mg Sb s.c. daily
From the text: FIG. 11 illustrates that sodium stibogluconate appears to synergize with IFNα against WM9 human melanoma tumors in nude mice. IFNα or both on the growth of xenografts of human melanoma cell line WM9 and human prostate carcinoma cell line DU-145 in athymic nude mice. Nude mice of 4 weeks old were inoculated subcutaneously (s.c.) with WM9 human melanoma cells (3×10^6 cells/site) (A) or DU-145 human prostate cancer cells (2×10^6 cells/site) (B) on day 0. Starting on day 2, the mice were subjected to no treatment (Control) or treatment with IFNα (500,000 U, s.c., daily), sodium stibogluconate (12 mg, s.c., daily) or both (Combo). Tumor volume in the nude mice (4 mice/group, 2 tumors/mouse) was measured on the days as indicated. Tumor volume was calculated by the equation: (length×width^2)/2 to compare tumor growth rates. All mice survived by the end of the experiment. […]
For each of the cell lines, each of 16 mice received subcutaneous injection at the chest area of 3×10^6 cells/site (WM9) or 2×10^6 cells/site (DU145), two sites/mouse, on day 0. […] Tumor size was measured with a caliper to determine the two perpendicular diameters of each tumor. Tumor volume was calculated using the method of the NCI (length×width^2 in millimeters/2=volume in cubic millimeters). […]

[4] = test system: H9 cells (T-lymphoma); experiment: Growth inhibition of human tumor cell lines; type: cell-based; conditions: SS 12.5 μg/ml, IFNα 1,000 u/ml, alone or combined
[5] = test system: MDA435 cells (Breast cancer); experiment: Growth inhibition of human tumor cell lines; type: cell-based; conditions: SS 12.5 μg/ml, IFNα 1,000 u/ml, alone or combined

T1 sequence (O75365 whole entry): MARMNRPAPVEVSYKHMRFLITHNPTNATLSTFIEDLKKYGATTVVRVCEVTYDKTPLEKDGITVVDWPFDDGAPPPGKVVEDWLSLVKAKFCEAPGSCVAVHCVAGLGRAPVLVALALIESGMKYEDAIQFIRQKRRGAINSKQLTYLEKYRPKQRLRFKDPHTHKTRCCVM

Row | Compound | phosphotyrosine levels of Jak2 and Stat5 relative to cells without drug treatment ([1]; IL-3 stimulated, drug 10 minutes before, densitometry) | Jak2/Stat5 tyrosine phosphorylation by the drug alone ([1]; without IL-3, 37° C. for 16 hours) | inhibition of PRL-3 after prolonged pre-incubation ([2]; pre-incubation 30 or 60 minutes, 10 mg/ml) | reversibility of PRL-3 inactivation ([2]; washing process) | average tumor volume, of the control group [3] | % of growth inhibition by day 6 (±s.d.) [4] | % of growth inhibition by day 6 (±s.d.) [5]
1 | O.O.O.O.O.O.O.O.O.O=C([O-])[C@@H]1[O][Sb]2([O-])([O][Sb]34([OH])[O][C@H]([C@H](O)CO)[C@H]([O]3)[C@H](C(=O)[O-])[O]4)[O][C@H]([C@H](O)CO)[C@@H]1[O]2.[Na+].[Na+].[Na+] [sodium stibogluconate] | about twice | failed to induce | nearly complete inactivation | not relieved |  |  | 
2 | IFNα |  |  |  |  | approximately 40% | 86 (3) % | 29 (15) %
